# Patent US20230365559A1, “NOVEL AMINOPYRIDINES AND THEIR USE IN TREATING CANCER” (priority 2020, published 2023)
# Biological target: ATM (Homo sapiens, UniProt Q13315)
# Test: ATM Human PIKK Kinase Enzymatic ELISA/EIA Assay, KinaseProfiler (Eurofins Discovery)
# Format: biochemical
# Conditions: for remaining activity at 1 µM: read-out: ATM, Percent of control at 1 μM; for IC50: KinaseProfiler, Km ATP, Table 15, read-out: Inhibition of PIKK kinase activity ATM
# Chain of ATM (Q13315 whole entry): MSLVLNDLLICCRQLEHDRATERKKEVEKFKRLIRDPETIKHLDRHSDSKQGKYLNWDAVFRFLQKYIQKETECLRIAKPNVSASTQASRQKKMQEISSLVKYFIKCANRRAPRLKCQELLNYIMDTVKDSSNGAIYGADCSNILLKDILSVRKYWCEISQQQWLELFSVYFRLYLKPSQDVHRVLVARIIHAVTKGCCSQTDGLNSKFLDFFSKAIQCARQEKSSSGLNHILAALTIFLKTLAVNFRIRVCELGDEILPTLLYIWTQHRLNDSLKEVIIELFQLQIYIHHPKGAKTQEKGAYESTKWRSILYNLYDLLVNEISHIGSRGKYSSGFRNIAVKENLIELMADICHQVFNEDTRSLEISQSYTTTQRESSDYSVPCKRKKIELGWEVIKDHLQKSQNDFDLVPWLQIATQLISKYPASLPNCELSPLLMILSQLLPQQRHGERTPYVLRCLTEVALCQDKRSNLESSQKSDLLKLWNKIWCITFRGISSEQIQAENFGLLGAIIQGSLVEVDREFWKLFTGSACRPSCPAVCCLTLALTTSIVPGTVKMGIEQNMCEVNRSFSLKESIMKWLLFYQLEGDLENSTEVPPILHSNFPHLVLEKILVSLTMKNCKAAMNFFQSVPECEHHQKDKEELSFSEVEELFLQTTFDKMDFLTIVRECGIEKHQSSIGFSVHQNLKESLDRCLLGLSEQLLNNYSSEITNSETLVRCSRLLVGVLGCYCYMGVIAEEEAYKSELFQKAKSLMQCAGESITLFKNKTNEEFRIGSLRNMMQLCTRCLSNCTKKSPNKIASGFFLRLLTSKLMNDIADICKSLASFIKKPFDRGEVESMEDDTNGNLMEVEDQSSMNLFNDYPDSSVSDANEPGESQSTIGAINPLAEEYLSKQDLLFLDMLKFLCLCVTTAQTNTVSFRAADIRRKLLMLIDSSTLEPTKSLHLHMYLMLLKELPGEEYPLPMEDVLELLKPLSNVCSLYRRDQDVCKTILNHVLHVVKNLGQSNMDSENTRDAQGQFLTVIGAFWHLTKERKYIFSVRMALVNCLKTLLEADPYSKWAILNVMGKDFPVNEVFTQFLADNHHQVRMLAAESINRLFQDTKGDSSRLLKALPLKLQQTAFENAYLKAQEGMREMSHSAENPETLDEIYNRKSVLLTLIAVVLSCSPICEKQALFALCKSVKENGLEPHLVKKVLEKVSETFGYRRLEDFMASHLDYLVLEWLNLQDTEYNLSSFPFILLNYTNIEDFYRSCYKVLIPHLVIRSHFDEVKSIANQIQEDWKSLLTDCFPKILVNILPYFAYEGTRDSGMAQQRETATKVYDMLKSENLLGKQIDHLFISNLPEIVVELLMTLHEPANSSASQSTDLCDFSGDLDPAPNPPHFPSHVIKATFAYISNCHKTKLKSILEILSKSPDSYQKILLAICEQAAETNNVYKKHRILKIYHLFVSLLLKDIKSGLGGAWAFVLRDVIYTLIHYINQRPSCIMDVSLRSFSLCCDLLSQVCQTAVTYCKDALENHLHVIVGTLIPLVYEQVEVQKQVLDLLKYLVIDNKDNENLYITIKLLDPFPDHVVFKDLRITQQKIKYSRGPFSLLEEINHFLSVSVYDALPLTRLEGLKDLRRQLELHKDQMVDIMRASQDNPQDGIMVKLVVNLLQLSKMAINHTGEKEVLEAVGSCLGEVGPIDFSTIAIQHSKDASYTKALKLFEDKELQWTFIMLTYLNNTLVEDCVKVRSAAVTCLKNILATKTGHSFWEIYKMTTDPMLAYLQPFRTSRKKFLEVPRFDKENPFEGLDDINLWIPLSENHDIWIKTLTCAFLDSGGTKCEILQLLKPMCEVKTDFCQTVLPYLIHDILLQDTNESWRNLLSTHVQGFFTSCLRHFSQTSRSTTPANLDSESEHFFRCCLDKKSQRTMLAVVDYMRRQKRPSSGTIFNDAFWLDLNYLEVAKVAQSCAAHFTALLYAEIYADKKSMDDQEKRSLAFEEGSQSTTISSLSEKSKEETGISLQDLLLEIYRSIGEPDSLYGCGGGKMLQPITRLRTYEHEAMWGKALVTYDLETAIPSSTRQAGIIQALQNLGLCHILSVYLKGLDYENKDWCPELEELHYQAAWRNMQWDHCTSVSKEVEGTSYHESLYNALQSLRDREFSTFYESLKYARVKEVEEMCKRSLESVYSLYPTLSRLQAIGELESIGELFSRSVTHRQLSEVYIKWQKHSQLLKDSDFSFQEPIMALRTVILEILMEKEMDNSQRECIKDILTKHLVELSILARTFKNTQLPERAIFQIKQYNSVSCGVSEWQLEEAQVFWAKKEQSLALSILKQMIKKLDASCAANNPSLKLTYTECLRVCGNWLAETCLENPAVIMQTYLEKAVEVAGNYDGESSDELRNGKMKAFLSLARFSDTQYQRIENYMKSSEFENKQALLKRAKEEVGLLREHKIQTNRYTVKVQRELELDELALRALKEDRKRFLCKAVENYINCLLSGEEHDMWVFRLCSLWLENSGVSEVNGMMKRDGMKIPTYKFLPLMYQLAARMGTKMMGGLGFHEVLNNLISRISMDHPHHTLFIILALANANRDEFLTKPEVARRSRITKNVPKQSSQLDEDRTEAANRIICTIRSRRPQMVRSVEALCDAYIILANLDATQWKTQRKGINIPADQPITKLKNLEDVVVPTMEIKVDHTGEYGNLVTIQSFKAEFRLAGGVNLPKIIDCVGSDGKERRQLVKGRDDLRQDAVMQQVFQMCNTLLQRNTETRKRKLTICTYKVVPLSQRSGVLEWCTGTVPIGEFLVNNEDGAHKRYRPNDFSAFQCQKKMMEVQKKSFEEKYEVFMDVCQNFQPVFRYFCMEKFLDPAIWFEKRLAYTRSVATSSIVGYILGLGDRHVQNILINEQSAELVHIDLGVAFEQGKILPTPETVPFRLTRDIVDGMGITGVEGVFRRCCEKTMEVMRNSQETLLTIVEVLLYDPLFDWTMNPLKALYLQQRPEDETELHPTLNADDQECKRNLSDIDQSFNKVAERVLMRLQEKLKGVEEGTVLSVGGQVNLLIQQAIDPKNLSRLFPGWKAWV
remaining activity at 1 µM [%],IC50 [nM],SMILES
86,,"Cc1cc(NCCN(C)C)ccc1Nc1cc2c(cn1)n(C)c(=O)n2C1CCCC1 [Compound 56, 1-Cyclopentyl-6-((4-((2-(dimethylamino)ethyl)amino)-2-methylphenyl)amino)-3-methyl-1,3-dihydro-2H-imidazo[4,5-c]pyridin-2-one]"
,719,"Cn1c(=O)n(C2CCCC2)c2cc(Nc3ccc4ncccc4c3)ncc21 [Compound 63, 1-Cyclopentyl-3-methyl-6-(quinolin-6-ylamino)-1,3-dihydro-2H-imidazo[4,5-c]pyridin-2-one]"
,1100,"Cn1c(=O)n(C2CCCC2)c2cc(Nc3cnc4ccccc4c3)ncc21 [Compound 64, 1-Cyclopentyl-3-methyl-6-(quinolin-3-ylamino)-1,3-dihydro-2H-imidazo[4,5-c]pyridin-2-one]"
93,,"Cn1c(=O)n(C2CCCC2)c2cc(Nc3cccc4ncccc34)ncc21 [Compound 65, 1-Cyclopentyl-3-methyl-6-(quinolin-5-ylamino)-1,3-dihydro-2H-imidazo[4,5-c]pyridin-2-one]"
92,,"Cn1c(=O)n(C2CCCC2)c2cc(Nc3cccc4cnccc34)ncc21 [Compound 66, 1-Cyclopentyl-6-(isoquinolin-5-ylamino)-3-methyl-1,3-dihydro-2H-imidazo[4,5-c]pyridin-2-one]"
88,,"Cc1cc(Nc2cc3c(cn2)n(C)c(=O)n3C2CCCC2)c2ccccc2n1 [Compound 67, 1-Cyclopentyl-3-methyl-6-((2-methylquinolin-4-yl)amino)-1,3-dihydro-2H-imidazo[4,5-c]pyridin-2-one]"
,940,"Cn1c(=O)n(C2CCCC2)c2cc(Nc3ccc4nccnc4c3)ncc21 [Compound 68, 1-Cyclopentyl-3-methyl-6-(quinoxalin-6-ylamino)-1,3-dihydro-2H-imidazo[4,5-c]pyridin-2-one]"
,275,"Cn1c(=O)n(C2CCCC2)c2cc(Nc3ccccn3)ncc21 [Compound 73, 1-Cyclopentyl-3-methyl-6-(pyridin-2-ylamino)-1,3-dihydro-2H-imidazo[4,5-c]pyridin-2-one]"
